Laboratory results: ChEMBL document CHEMBL1147845, “Rapid synthesis of sulfone derivatives as potential anti-infectious agents” (2007)
Values after ≈ are worked out from the molar mass of the structure shown. Active and inactive are the calls of the source. No cut-off for these calls is given here.

Columns and labels:
Candida tropicalis [1] = assay: Antimicrobial activity against Candida tropicalis IP 2031 by disk diffusion method; format: functional
Pseudomonas aeruginosa [2] = assay: Antimicrobial activity against Pseudomonas aeruginosa ATCC 15442 by disk diffusion method; format: functional, organism-based
Staphylococcus aureus [3] = assay: Antimicrobial activity against Staphylococcus aureus ATCC 6538 by disk diffusion method; format: functional
Escherichia coli [4] = assay: Antimicrobial activity against Escherichia coli ATCC 10536 by disk diffusion method; format: functional
Candida tropicalis [5] = assay: Antimicrobial activity against Candida tropicalis IP 2031 by broth microdilution method; format: functional
Candida albicans [6] = assay: Antimicrobial activity against Candida albicans ATCC 90029 by disk diffusion method; format: functional, organism-based
Staphylococcus aureus [7] = assay: Antimicrobial activity against Staphylococcus aureus ATCC 6538 by broth microdilution method; format: functional
Enterococcus hirae [8] = assay: Antimicrobial activity against Enterococcus hirae ATCC 10541 by disk diffusion method; format: functional, organism-based
Pseudomonas aeruginosa [9] = assay: Antimicrobial activity against Pseudomonas aeruginosa ATCC 15442 at 30 ug by disk diffusion method; format: functional, organism-based
Candida tropicalis [10] = assay: Antimicrobial activity against Candida tropicalis IP 2031 at 30 ug by disk diffusion method; format: functional, organism-based
Staphylococcus aureus [11] = assay: Antimicrobial activity against Staphylococcus aureus ATCC 6538 at 30 ug by disk diffusion method; format: functional, organism-based
Enterococcus hirae [12] = assay: Antimicrobial activity against Enterococcus hirae ATCC 10541 at 30 ug by disk diffusion method; format: functional, organism-based
Escherichia coli [13] = assay: Antimicrobial activity against Escherichia coli ATCC 10536 at 30 ug by disk diffusion method; format: functional; settings: read-out: IZ
Candida albicans [14] = assay: Antimicrobial activity against Candida albicans ATCC 90029 at 30 ug by disk diffusion method; format: functional, organism-based
Pseudomonas aeruginosa [15] = assay: Antimicrobial activity against Pseudomonas aeruginosa ATCC 15442 at 20 ug by disk diffusion method; format: functional, organism-based
Staphylococcus aureus [16] = assay: Antimicrobial activity against Staphylococcus aureus ATCC 6538 at 20 ug by disk diffusion method; format: functional, organism-based
Enterococcus hirae [17] = assay: Antimicrobial activity against Enterococcus hirae ATCC 10541 at 20 ug by disk diffusion method; format: functional, organism-based
Candida tropicalis [18] = assay: Antimicrobial activity against Candida tropicalis IP 2031 at 20 ug by disk diffusion method; format: functional; settings: read-out: IZ
Candida albicans [19] = assay: Antimicrobial activity against Candida albicans ATCC 90029 at 20 ug by disk diffusion method; format: functional; settings: read-out: IZ
Escherichia coli [20] = assay: Antimicrobial activity against Escherichia coli ATCC 10536 at 20 ug by disk diffusion method; format: functional, organism-based
Pseudomonas aeruginosa [21] = assay: Antimicrobial activity against Pseudomonas aeruginosa ATCC 15442 at 10 ug by disk diffusion method; format: functional, organism-based
Escherichia coli [22] = assay: Antimicrobial activity against Escherichia coli ATCC 10536 at 10 ug by disk diffusion method; format: functional, organism-based
Enterococcus hirae [23] = assay: Antimicrobial activity against Enterococcus hirae ATCC 10541 at 10 ug by disk diffusion method; format: functional, organism-based
Candida tropicalis [24] = assay: Antimicrobial activity against Candida tropicalis IP 2031 at 10 ug by disk diffusion method; format: functional, organism-based
Staphylococcus aureus [25] = assay: Antimicrobial activity against Staphylococcus aureus ATCC 6538 at 10 ug by disk diffusion method; format: functional; settings: read-out: IZ
Candida albicans [26] = assay: Antimicrobial activity against Candida albicans ATCC 90029 at 10 ug by disk diffusion method; format: functional, organism-based

| SMILES | inhibition zone (IZ) (Candida tropicalis [1]) | Activity (Pseudomonas aeruginosa [2]) | inhibition zone (IZ) (Staphylococcus aureus [3]) | Activity (Escherichia coli [4]) | MIC (Candida tropicalis [5]) | Activity (Candida albicans [6]) | MIC (Staphylococcus aureus [7]) | Activity (Enterococcus hirae [8]) | further results |
| --- | --- | --- | --- | --- | --- | --- | --- | --- | --- |
| O=C(CS(=O)(=O)c1cccc2ccccc12)c1ccc([N+](=O)[O-])cc1 | 12 mm | inactive | 10 mm | inactive | > 100 µg/mL | inactive | > 100 µg/mL | inactive |  |
| Cc1ccc(S(=O)(=O)CC(=O)c2ccc([N+](=O)[O-])cc2)cc1 | 22 mm | inactive | 11 mm |  | > 100 µg/mL | inactive | > 100 µg/mL | inactive | inhibition zone (IZ) (Escherichia coli [4]): 12 mm |
| O=C(CS(=O)(=O)c1ccc(Cl)cc1)c1ccc([N+](=O)[O-])cc1 | 19 mm | inactive | 24 mm | inactive | 100 µg/mL (≈ 294 µM) | inactive | 100 µg/mL (≈ 294 µM) | inactive |  |
| Nc1ccc(S(=O)(=O)c2ccc(N)cc2)cc1 [DAPSONE] |  |  |  |  | > 100 µg/mL |  | > 100 µg/mL |  |  |
| O=C(N[C@H](CO)[C@H](O)c1ccc([N+](=O)[O-])cc1)C(Cl)Cl [CHLORAMPHENICOL] |  |  |  |  |  |  |  |  | Activity (Pseudomonas aeruginosa [9]): inactive; Activity (Candida tropicalis [10]): inactive; Activity (Staphylococcus aureus [11]): inactive; Activity (Enterococcus hirae [12]): inactive; zone of inhibition at 30 µg/disc (Escherichia coli [13]): 34 mm; Activity (Candida albicans [14]): inactive |
| OC(Cn1cncn1)(Cn1cncn1)c1ccc(F)cc1F [FLUCONAZOLE] |  |  |  |  |  |  |  |  | Activity (Pseudomonas aeruginosa [15]): inactive; Activity (Staphylococcus aureus [16]): inactive; Activity (Enterococcus hirae [17]): inactive; zone of inhibition at 20 µg/disc (Candida tropicalis [18]): 21 mm; zone of inhibition at 20 µg/disc (Candida albicans [19]): 18 mm; Activity (Escherichia coli [20]): inactive |
| O=C(CS(=O)(=O)c1ccc([N+](=O)[O-])cc1)c1ccc([N+](=O)[O-])cc1 | 12 mm | inactive | 28 mm | inactive | 100 µg/mL (≈ 285 µM) | inactive | 100 µg/mL (≈ 285 µM) | inactive |  |
| CN[C@@H]1[C@H](O[C@H]2[C@H](O[C@H]3[C@H](O)[C@@H](O)[C@H](N=C(N)N)[C@@H](O)[C@@H]3N=C(N)N)O[C@@H](C)[C@]2(O)C=O)O[C@@H](CO)[C@H](O)[C@H]1O [STREPTOMYCIN] |  |  |  |  |  |  |  |  | Activity (Pseudomonas aeruginosa [21]): inactive; Activity (Escherichia coli [22]): inactive; Activity (Enterococcus hirae [23]): inactive; Activity (Candida tropicalis [24]): inactive; zone of inhibition at 10 µg/disc (Staphylococcus aureus [25]): 27 mm; Activity (Candida albicans [26]): inactive |
| O=C(CS(=O)(=O)c1ccc(I)cc1)c1ccc([N+](=O)[O-])cc1 |  | inactive | 11 mm | inactive | > 100 µg/mL | inactive | > 100 µg/mL | inactive | Activity (Candida tropicalis [1]): inactive |
| O=C(c1ccc([N+](=O)[O-])cc1)C(Cc1ccccc1)S(=O)(=O)c1ccccc1 (centres undefined) |  | inactive |  | inactive |  | inactive |  | inactive | Activity (Candida tropicalis [1]): inactive; Activity (Staphylococcus aureus [3]): inactive |
| O=C(CS(=O)(=O)c1ccc(F)cc1)c1ccc([N+](=O)[O-])cc1 | 19 mm | inactive | 25 mm | inactive | > 100 µg/mL | inactive | > 100 µg/mL | inactive |  |
